Experimental data from patent publication US5013837A, “3-Arylcarbonyl-1H-indole-containing compounds” (Sterling Drug Inc., priority 1990, dated 1991).

Key:
[1] = test system: mouse vasa deferentia (MVD) preparation; assay: mouse vas deferens test (MVD); assay type: cell-based; details: inhibition of contractions in vitro, active at IC50 of 5.0 μM or less
Source text: Med. Assoc. 217, 1392 (1971)]. […] Opth. 7, 921-923 (1975); Green and Pederson, Effect of delta-9 Tetrahydrocannabinol on Aqueous Dynamics and Ciliary Body Permeability in the Rabbit Eye., Exptl. Eye Research 15, 499-507 (1973); Colasanti, Craig and Allara, Intraocular Pressure, Ocular Toxicity and Neurotoxicity after Administration of Cannabinol or Cannibigerol, Exptl. Eye Research 39, 252-259 (1984)]. Similarly, synthetic cannabinoids also reduce intraocular pressure [Green, Symunds, Oliver and Elijah, Intraocular Pressure Following Systemic Administration of Cannabinoids, Curr Eye Research 2, 247-253 (1982); Tiedeman, Shields, Weber, Crow, Coccetto, Harris and Howes, Ophthalmology, 88, 270-277 (1981); Colasanti et al., supra]. Cannabinoid receptor binding sites can be defined as those to which radio-labelled 4-(1,1-dimethylheptyl)-2,3'-dihydroxy-6'alpha-(3-hydroxypropyl)-1',2',3',4',5',6'-hexahydrobiphenyl (CP 55940) binds in a specific and saturable manner, and the binding sites are heterogeneously distributed in the brain [Devane, Dysarz, Johnson, Melvin and Howlett, Determination and Characterization of a Cannabinoid Receptor in Rat Brain, Molecular Pharm. 34, 605-613 (1988)]. Natural and synthetic cannabinoids and representative examples of the compounds of the present invention bind to CP 55940 binding sites. […]

[2] = topical application or systemic injection; cited from earlier work

| Structure (SMILES) | IC50 [1] [nM] | effect on intraocular pressure [2] |
| --- | --- | --- |
| O=C(c1ccc2ccccc2c1)c1cn(CCN2CCOCC2)c2ccccc12 [Example 1S] | 50 | – |
| CCCCCc1cc(O)c2c(c1)OC(C)(C)[C@@H]1CCC(C)=C[C@@H]21 [delta-9 tetrahydrocannabinol] | – | reduces intraocular pressure |
